Results as given in ChEMBL document CHEMBL6078698, “Discovery of 6-Fluoro-5-{4-[(5-fluoro-2-methyl-3-oxo-3,4-dihydroquinoxalin-6-yl)methyl]piperazin-1-yl}-N-methylpyridine-2-carboxamide (AZD9574): A CNS-Penetrant, PARP1-Selective Inhibitor” (J Med Chem, 2024).
≈ marks a conversion by molar mass, not a printed value.

Tests used:
[1] = target: Poly [ADP-ribose] polymerase 1 (Homo sapiens, UniProt P09874); assay: Inhibition of N-terminal 6His-tagged full-length recombinant human PARP1 by fluorescence anisotropy assay
Poly [ADP-ribose] polymerase 1, sequence (P09874 whole entry): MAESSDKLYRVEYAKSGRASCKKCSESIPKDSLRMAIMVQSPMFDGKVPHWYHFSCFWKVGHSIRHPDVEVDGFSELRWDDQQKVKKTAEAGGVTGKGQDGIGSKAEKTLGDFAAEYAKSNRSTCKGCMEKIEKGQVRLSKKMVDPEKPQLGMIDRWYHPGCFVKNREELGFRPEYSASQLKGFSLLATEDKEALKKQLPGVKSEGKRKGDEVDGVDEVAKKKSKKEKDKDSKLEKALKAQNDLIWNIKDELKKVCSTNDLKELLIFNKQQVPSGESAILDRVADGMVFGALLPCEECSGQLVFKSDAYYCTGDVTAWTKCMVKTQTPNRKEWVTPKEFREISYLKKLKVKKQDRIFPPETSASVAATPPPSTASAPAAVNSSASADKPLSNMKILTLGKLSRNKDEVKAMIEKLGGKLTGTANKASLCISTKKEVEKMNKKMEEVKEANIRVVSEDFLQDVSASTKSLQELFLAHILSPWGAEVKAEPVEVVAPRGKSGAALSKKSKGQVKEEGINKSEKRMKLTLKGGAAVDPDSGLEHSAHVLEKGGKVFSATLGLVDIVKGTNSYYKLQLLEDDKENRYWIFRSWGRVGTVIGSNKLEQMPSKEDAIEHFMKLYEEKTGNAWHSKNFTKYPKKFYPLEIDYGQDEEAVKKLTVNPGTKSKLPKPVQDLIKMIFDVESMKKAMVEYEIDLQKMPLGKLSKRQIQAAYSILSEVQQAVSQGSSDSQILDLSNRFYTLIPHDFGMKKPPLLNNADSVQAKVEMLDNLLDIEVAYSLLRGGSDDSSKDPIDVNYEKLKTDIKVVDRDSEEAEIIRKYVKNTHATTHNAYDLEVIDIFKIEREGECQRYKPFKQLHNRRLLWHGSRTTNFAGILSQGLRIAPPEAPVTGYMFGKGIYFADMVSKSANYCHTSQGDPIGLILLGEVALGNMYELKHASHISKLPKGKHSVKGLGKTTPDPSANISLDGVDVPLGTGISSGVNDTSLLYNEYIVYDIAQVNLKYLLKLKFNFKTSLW

[2] = target: Poly [ADP-ribose] polymerase 2 (Homo sapiens, UniProt Q9UGN5); assay: Inhibition of N-terminal 6His-tagged full-length recombinant human PARP2 by fluorescence anisotropy assay
Poly [ADP-ribose] polymerase 2, sequence (Q9UGN5 whole entry): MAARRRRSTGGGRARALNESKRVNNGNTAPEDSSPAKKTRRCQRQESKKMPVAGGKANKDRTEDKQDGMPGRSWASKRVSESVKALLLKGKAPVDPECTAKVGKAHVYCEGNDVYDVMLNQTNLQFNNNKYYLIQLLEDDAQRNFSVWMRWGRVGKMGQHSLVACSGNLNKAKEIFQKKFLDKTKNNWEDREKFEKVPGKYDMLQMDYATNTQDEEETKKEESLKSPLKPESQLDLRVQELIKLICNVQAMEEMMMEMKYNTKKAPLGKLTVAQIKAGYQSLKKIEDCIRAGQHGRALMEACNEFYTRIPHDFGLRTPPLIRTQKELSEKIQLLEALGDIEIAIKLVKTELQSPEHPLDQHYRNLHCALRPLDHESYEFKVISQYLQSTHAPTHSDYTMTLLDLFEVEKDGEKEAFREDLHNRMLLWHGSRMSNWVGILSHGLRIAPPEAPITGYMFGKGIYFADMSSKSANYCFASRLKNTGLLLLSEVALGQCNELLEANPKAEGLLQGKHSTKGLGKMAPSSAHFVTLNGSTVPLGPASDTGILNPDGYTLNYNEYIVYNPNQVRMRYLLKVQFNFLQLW

[3] = Inhibition of cell proliferation of human DLD-1 cells expressing BRCA2-/- incubated for 7 days by Sytox green dye based analysis; assay type: functional; details: DLD-1, 168 h
MDR1 (P-gp), BCRP = assay: Efflux ratio in MDCK-MDR1-BCRP cells; assay type: ADME, cell-based, Canis lupus familiaris; details: dog
[4] = Ratio of unbound drug concentration in brain to plasma of rat; assay type: ADME, cell-free; details: for Kp uu: brain and plasma (unbound), read-out: K(p,uu,brain)
[5] = target: Voltage-gated inwardly rectifying potassium channel KCNH2 (Homo sapiens, UniProt Q12809); assay: (§1) Inhibition of hERG transfected in CHO cells by electrophysiology; assay type: toxicity, cell-based
Voltage-gated inwardly rectifying potassium channel KCNH2, sequence (Q12809 whole entry): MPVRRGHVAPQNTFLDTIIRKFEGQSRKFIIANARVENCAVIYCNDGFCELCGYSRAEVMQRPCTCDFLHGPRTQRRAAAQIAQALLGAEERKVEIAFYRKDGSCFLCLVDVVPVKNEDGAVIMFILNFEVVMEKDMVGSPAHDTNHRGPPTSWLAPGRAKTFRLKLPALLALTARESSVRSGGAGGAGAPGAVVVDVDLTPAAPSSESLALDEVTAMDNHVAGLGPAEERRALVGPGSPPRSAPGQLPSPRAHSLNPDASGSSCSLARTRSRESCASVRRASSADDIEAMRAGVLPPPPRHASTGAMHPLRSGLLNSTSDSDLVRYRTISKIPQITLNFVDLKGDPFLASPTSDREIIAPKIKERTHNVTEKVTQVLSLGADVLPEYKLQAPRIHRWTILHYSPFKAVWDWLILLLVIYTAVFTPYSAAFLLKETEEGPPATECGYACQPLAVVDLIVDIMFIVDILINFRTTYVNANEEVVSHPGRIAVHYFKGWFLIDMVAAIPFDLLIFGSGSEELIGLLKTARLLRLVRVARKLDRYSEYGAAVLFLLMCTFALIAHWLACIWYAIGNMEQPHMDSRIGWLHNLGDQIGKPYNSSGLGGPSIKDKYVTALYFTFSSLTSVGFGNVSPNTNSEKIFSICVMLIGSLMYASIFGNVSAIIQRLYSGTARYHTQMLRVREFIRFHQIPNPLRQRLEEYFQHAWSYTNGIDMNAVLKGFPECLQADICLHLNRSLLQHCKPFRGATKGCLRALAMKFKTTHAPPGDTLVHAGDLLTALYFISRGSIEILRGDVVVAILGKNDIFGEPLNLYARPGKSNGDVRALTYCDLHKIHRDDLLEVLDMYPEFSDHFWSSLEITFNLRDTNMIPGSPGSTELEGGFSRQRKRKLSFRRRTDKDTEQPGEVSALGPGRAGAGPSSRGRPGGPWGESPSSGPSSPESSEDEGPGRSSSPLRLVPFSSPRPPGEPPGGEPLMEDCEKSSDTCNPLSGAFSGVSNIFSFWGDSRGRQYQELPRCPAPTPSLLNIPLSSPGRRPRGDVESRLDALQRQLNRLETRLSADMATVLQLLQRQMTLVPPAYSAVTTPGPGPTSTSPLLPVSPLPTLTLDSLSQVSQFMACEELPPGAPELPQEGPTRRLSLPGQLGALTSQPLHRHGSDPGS

[6] = Solubility of compound at pH 7.4; assay type: physicochemical; details: buffer
[7] = Lipophilicity, log D of compound at pH 7.4; assay type: physicochemical; details: buffer
[8] = Intrinsic clearance in human liver microsomes; assay type: ADME, Microsome; details: read-out: CLH
DLD-1 [9] = assay: Antitumor activity against human DLD-1 cells expressing BRCA2-/- xenografted in athymic nude Foxn1nu mouse at 100 mg/kg administered once daily for 28 days relative to control; assay type: functional; details: DLD-1, 672 h, time 28 day, read-out: TGI
hERG (KCNH2) = hERG (KCNH2) (Homo sapiens, UniProt Q12809); assay: as §1; assay type: toxicity, cell-based; details: human, CHO cells transfected with hERG
hERG (KCNH2), sequence (Q12809 whole entry): as above

[10] = Unbound fraction in CD-1 mouse plasma at 1 mg/kg, po or 0.5 mg/kg, iv; assay type: ADME, organism-based; details: in vivo
[11] = Volume of distribution at steady state in CD-1 mouse at 1 mg/kg, po or 0.5 mg/kg, iv; assay type: ADME, organism-based; details: in vivo
[12] = Half life in CD-1 mouse at 1 mg/kg, po or 0.5 mg/kg, iv; assay type: ADME, organism-based; details: in vivo
[13] = Oral bioavailability […] in CD-1 mouse at 1 mg/kg; assay type: ADME, organism-based; details: in vivo
[14] = Unbound fraction in Han Wistar rat plasma at 1 mg/kg, po or 1 mg/kg, iv; assay type: ADME, organism-based; details: in vivo
[15] = Volume of distribution at steady state in Han Wistar rat at 1 mg/kg, po or 1 mg/kg, iv; assay type: ADME, organism-based; details: in vivo
[16] = Half life in Han Wistar rat at 1 mg/kg, po or 1 mg/kg, iv; assay type: ADME, organism-based; details: in vivo
[17] = Oral bioavailability in Han Wistar rat at 1 mg/kg; assay type: ADME, organism-based; details: in vivo
[18] = Unbound fraction in Beagle dog plasma at 1 mg/kg, po or 1 mg/kg, iv; assay type: ADME, organism-based, Canis lupus familiaris; details: in vivo
[19] = Volume of distribution at steady state in Beagle dog at 1 mg/kg, po or 1 mg/kg, iv; assay type: ADME, organism-based, Canis lupus familiaris; details: in vivo
[20] = Half life in Beagle dog at 1 mg/kg, po or 1 mg/kg, iv; assay type: ADME, organism-based, Canis lupus familiaris; details: in vivo
[21] = Oral bioavailability in Beagle dog at 1 mg/kg; assay type: ADME, organism-based, Canis lupus familiaris; details: in vivo
DLD-1 [22] = assay: Antitumor activity against human DLD-1 cells expressing BRCA2-/- xenografted in mouse at 3 mg/kg administered once daily for 5 weeks relative to control; assay type: functional; details: DLD-1, 840 h, read-out: TGI
DLD-1 [23] = assay: Antitumor activity against human DLD-1 cells expressing BRCA2-/- xenografted in mouse at 30 mg/kg administered once daily for 5 weeks relative to control; assay type: functional; details: DLD-1, 840 h, read-out: TGI
DLD-1 [24] = assay: Antitumor activity against human DLD-1 cells expressing BRCA2-/- xenografted in mouse at 10 mg/kg administered once daily for 5 weeks relative to control; assay type: functional; details: DLD-1, 840 h, read-out: TGI
[25] = Unbound fraction in Cynomolgous monkey plasma at 1 mg/kg, po or 0.5 mg/kg, iv; assay type: ADME, organism-based, Macaca fascicularis; details: cynomolgus monkey, in vivo
[26] = Volume of distribution at steady state in Cynomolgous monkey at 1 mg/kg, po or 0.5 mg/kg, iv; assay type: ADME, organism-based, Macaca fascicularis; details: cynomolgus monkey, in vivo
[27] = Half life in Cynomolgous monkey at 1 mg/kg, po or 0.5 mg/kg, iv; assay type: ADME, organism-based, Macaca fascicularis; details: cynomolgus monkey, in vivo
[28] = Oral bioavailability in Cynomolgous monkey at 1 mg/kg; assay type: ADME, organism-based, Macaca fascicularis; details: cynomolgus monkey, in vivo
[29] = Toxicity in mouse xenografted with human DLD-1 cells expressing BRCA2-/- assessed as drug tolerance at 3 to 30 mg/kg administered once daily for 5 weeks; assay type: organism-based; details: in vivo, 840 h, dose 3-30 mg/kg
[30] = Toxicity in mouse xenografted with human DLD-1 cells expressing BRCA2-/- assessed as body weight reduction at 3 to 30 mg/kg administered once daily for 5 weeks; assay type: organism-based; details: in vivo, 840 h, dose 3-30 mg/kg

CCc1nc2ccc(CN3CCN(c4ccc(F)nc4C)CC3)cc2[nH]c1=O
IC50 [1]: 0.005 µM
IC50 [2]: 53 µM
IC50 [3]: 0.01 µM
efflux ratio (MDR1 (P-gp), BCRP): 1.3
Kp uu [4]: 0.36
IC50 [5]: 11 µM
solubility [6]: 30 µM (≈ 11.4 µg/mL)
logD [7]: 3.3
microsomal CLint [8]: 13 µL/min/mg

O=C(c1cc(Cc2n[nH]c(=O)c3ccccc23)ccc1F)N1CCN(C(=O)C2CC2)CC1 [OLAPARIB]
Kp uu [4]: < 0.1
inhibition in vivo at 100 mg/kg (DLD-1 [9]): 40%

CCc1cc2ccc(CN3CCN(c4cnc(C(=O)NC)cc4C)CC3)cc2[nH]c1=O
IC50 [1]: 0.006 µM
IC50 [2]: 6.3 µM
IC50 [3]: 1.14 µM
IC50 [5]: 8 µM
solubility [6]: 3 µM (≈ 1.26 µg/mL)
logD [7]: 3.3
microsomal CLint [8]: 33 µL/min/mg

C[C@]12CCCN1CC1=NNC(=O)c3cc(F)cc4[nH]c2c1c34 [PAMIPARIB]
IC50 [2]: 0.006 µM
IC50 [3]: 0.007 µM
Kp uu [4]: 0.1

CCc1cc2ccc(CN3CCN(c4ccc(C(=O)NC)nc4C)CC3)cc2[nH]c1=O
IC50 [1]: 0.005 µM
IC50 [2]: 1.5 µM
IC50 [3]: 0.002 µM
IC50 [5]: 17 µM
solubility [6]: 3 µM (≈ 1.26 µg/mL)
logD [7]: 3.3
microsomal CLint [8]: 19 µL/min/mg

CCc1nc2ccc(CN3CCN(c4ccc(C(=O)NC)nc4C)CC3)cc2[nH]c1=O
IC50 [3]: 0.002 µM
efflux ratio (MDR1 (P-gp), BCRP): 2.2
solubility [6]: 13 µM (≈ 5.47 µg/mL)
logD [7]: 2.9
microsomal CLint [8]: 10 µL/min/mg

Cn1ncnc1[C@H]1c2n[nH]c(=O)c3cc(F)cc(c23)N[C@@H]1c1ccc(F)cc1 [TALAZOPARIB]
Kp uu [4]: < 0.1

CCc1nc2ccc(CN3CCN(c4ccc(C(=O)NC)nc4F)CC3)c(F)c2[nH]c1=O
IC50 [3]: 0.005 µM
K(p,uu,brain) ([4]; brain): 0.43
IC50 (hERG (KCNH2)): > 40 µM
solubility [6]: < 11 µM
logD [7]: 2.6
microsomal CLint [8]: < 5 µL/min/mg

CNC(=O)c1ccc(N2CCN(Cc3ccc4c5c(c(=O)[nH]c4c3)COCC5)CC2)cn1
IC50 [1]: 0.004 µM
IC50 [2]: 0.69 µM
efflux ratio (MDR1 (P-gp), BCRP): 6.8
IC50 [5]: > 40 µM
solubility [6]: 1 µM (≈ 0.434 µg/mL)
logD [7]: 2
microsomal CLint [8]: 17 µL/min/mg

CCc1cc2ccc(CN3CCN(c4ccc(C(=O)NC)nc4)CC3)cc2[nH]c1=O
IC50 [3]: 0.004 µM
efflux ratio (MDR1 (P-gp), BCRP): 2.8
Kp uu [4]: 0.1
IC50 (hERG (KCNH2)): 21 µM

CCc1nc2ccc(CN3CCN(c4ccc(F)nc4)CC3)cc2[nH]c1=O
IC50 [1]: 0.009 µM
IC50 [2]: 46 µM
IC50 [3]: 0.066 µM
efflux ratio (MDR1 (P-gp), BCRP): 0.5
IC50 [5]: > 40 µM
solubility [6]: 9 µM (≈ 3.31 µg/mL)
logD [7]: 2.6
microsomal CLint [8]: < 3 µL/min/mg

CCc1nc2ccc(CN3CCN(c4ccc(C(=O)NC)nc4F)CC3)c(C)c2[nH]c1=O
IC50 [2]: > 100 µM
IC50 [3]: 0.012 µM
solubility [6]: < 2 µM
logD [7]: 3.1
microsomal CLint [8]: < 3 µL/min/mg

CCc1cc2ncc(CN3CCN(c4ccc(C(=O)NC)nc4)CC3)cc2[nH]c1=O [SARUPARIB]
Kp uu [4]: < 0.1
IC50 (hERG (KCNH2)): > 40 µM
microsomal CLint [8]: < 6 µL/min/mg

NC(=O)c1cccc2cn(-c3ccc([C@@H]4CCCNC4)cc3)nc12 [NIRAPARIB]
IC50 [3]: 0.167 µM
Kp uu [4]: < 0.1

CCc1nc2ccc(CN3CCN(c4ccc(C(=O)NC)nc4)CC3)cc2[nH]c1=O
Kp uu [4]: 0.05

C[C@]1(c2nc3c(C(N)=O)cccc3[nH]2)CCCN1 [VELIPARIB]
IC50 [3]: 1.3 µM
Kp uu [4]: 0.19

CNC(=O)c1ccc(N2CCN(Cc3ccc4nc(C)c(=O)[nH]c4c3F)CC2)c(F)n1 [AZD-9574]
IC50 [3]: 0.016 µM
Kp uu [4]: 0.31
IC50 (hERG (KCNH2)): > 40 µM
solubility [6]: 19 µM (≈ 8.14 µg/mL)
logD [7]: 1.9
microsomal CLint [8]: < 3 µL/min/mg
Fu [10]: 20%
Vdss [11]: 2.7 L/kg
half-life [12]: 4 h
bioavailability [13]: 116%
Fu [14]: 13%
Vdss [15]: 2.3 L/kg
half-life [16]: 6.3 h
bioavailability [17]: 50%
Fu [18]: 25%
Vdss [19]: 1.1 L/kg
half-life [20]: 12 h
bioavailability [21]: 91%
inhibition in vivo at 3 mg/kg (DLD-1 [22]): 43%
inhibition in vivo at 30 mg/kg (DLD-1 [23]): 69%
inhibition in vivo at 10 mg/kg (DLD-1 [24]): 73%
Fu [25]: 16%
Vdss [26]: 1.7 L/kg
half-life [27]: 10.5 h
bioavailability [28]: 95%
Activity [29]: Non-toxic
Activity [30]: Toxic

CNC(=O)c1ccc(N2CCN(Cc3ccc4nc(C)c(=O)[nH]c4c3F)CC2)c(C)n1
IC50 [3]: 0.007 µM
efflux ratio (MDR1 (P-gp), BCRP): 1.6
Kp uu [4]: 0.19
IC50 (hERG (KCNH2)): > 40 µM
solubility [6]: 11 µM (≈ 4.67 µg/mL)
logD [7]: 2.2
microsomal CLint [8]: < 3 µL/min/mg

CCc1nc2ccc(CN3CCN(c4ccc(C(=O)NC)nc4F)CC3)c(Cl)c2[nH]c1=O
IC50 [3]: 0.017 µM
efflux ratio (MDR1 (P-gp), BCRP): 0.4
IC50 (hERG (KCNH2)): > 40 µM
solubility [6]: 20 µM (≈ 9.18 µg/mL)
logD [7]: 3.1
microsomal CLint [8]: 10 µL/min/mg

CNCc1ccc(-c2[nH]c3cc(F)cc4c3c2CCNC4=O)cc1 [RUCAPARIB]
IC50 [3]: 0.039 µM
Kp uu [4]: < 0.1

CCc1nc2ccc(CN3CCN(c4ccc(C(=O)NC)nc4Cl)CC3)cc2[nH]c1=O
IC50 [3]: 0.001 µM
efflux ratio (MDR1 (P-gp), BCRP): 6.7
solubility [6]: 8 µM (≈ 3.53 µg/mL)
logD [7]: 3
microsomal CLint [8]: 10 µL/min/mg

CNC(=O)c1ccc(N2CCN(Cc3ccc4nc(C)c(=O)[nH]c4c3)CC2)c(F)n1
IC50 [1]: 0.008 µM
IC50 [2]: 26 µM
efflux ratio (MDR1 (P-gp), BCRP): 3.6
solubility [6]: 26 µM (≈ 10.7 µg/mL)
logD [7]: 2.1
microsomal CLint [8]: < 3 µL/min/mg

CCc1nc2ccc(CN3CCN(c4cnc(F)cc4C)CC3)cc2[nH]c1=O
IC50 [1]: 0.011 µM
IC50 [2]: > 67 µM
IC50 [3]: 0.013 µM
efflux ratio (MDR1 (P-gp), BCRP): 1
Kp uu [4]: 0.2
IC50 [5]: 23 µM
solubility [6]: 9 µM (≈ 3.43 µg/mL)
logD [7]: 3.3
microsomal CLint [8]: 19 µL/min/mg

CCc1nc2ccc(CN3CCN(c4ccc(C(=O)NC)nc4F)CC3)cc2[nH]c1=O
IC50 [3]: 0.001 µM
efflux ratio (MDR1 (P-gp), BCRP): 2
Kp uu [4]: 0.1
solubility [6]: 4 µM (≈ 1.7 µg/mL)
logD [7]: 2.7
microsomal CLint [8]: 8 µL/min/mg

CCc1cc2cnc(CN3CCN(c4ccc(C(=O)NC)nc4)CC3)cc2[nH]c1=O
IC50 [3]: 0.003 µM
